Data as given in ChEMBL document CHEMBL1681742, “Novel second generation analogs of eribulin. Part I: Compounds containing a lipophilic C32 side chain overcome P-glycoprotein susceptibility” (Bioorg Med Chem Lett, 2011).

Key:
[1] = Antiproliferative activity against human MES-SA cells assessed as growth inhibition; format: functional, cell-based
[2] = Antiproliferative activity against P-gp overexpressing human MES-SA/Dx5-Rx1 cells assessed as growth inhibition; format: functional
HCT-15 = experiment: Antiproliferative activity against human HCT15 cells assessed as growth inhibition; format: functional, cell-based
[3] = Cytotoxicity against human IMR90 cells up to 1 uM; format: cell-based; details: imr-90
[4] = Fold resistance, ratio of IC50 for antiproliferative activity for P-gp overexpressing human MES-SA/Dx5-Rx1cells to IC50 for antiproliferative activity for human MES-SA cells
DLD-1 = experiment: Antiproliferative activity against human DLD1 cells assessed as growth inhibition; format: functional, cell-based

| SMILES | IC50 (HCT-15) | IC50 (DLD-1) | IC50 [1] | IC50 [2] | Activity [3] | Ratio IC50 [4] |
| --- | --- | --- | --- | --- | --- | --- |
| CC[C@]1(O)C[C@@H]2CN(CCc3c([nH]c4ccccc34)[C@@](C(=O)OC)(c3cc4c(cc3OC)N(C)[C@H]3[C@@](O)(C(=O)OC)[C@H](OC(C)=O)[C@]5(CC)C=CCN6CC[C@]43[C@@H]65)C2)C1 [VINBLASTINE] | 28.5 nM | – | 2.28 nM | 440 nM | Non-toxic | 224.18 |
| C=C1C[C@@H]2CC[C@@]34C[C@H]5O[C@H]6[C@@H](O3)[C@H]3O[C@H](CC[C@@H]3O[C@H]6[C@H]5O4)CC(=O)C[C@@H]3[C@@H](OC)[C@@H](CC(=O)O)O[C@H]3C[C@H]3O[C@@H](CC[C@@H]1O2)C[C@@H](C)C3=C | 18.3 nM | 17.6 nM | 12.4 nM | 95.5 nM | Non-toxic | 7.72 |
| C=C1C[C@@H]2CC[C@@]34C[C@H]5O[C@H]6[C@@H](O3)[C@H]3O[C@H](CC[C@@H]3O[C@H]6[C@H]5O4)CC(=O)C[C@@H]3[C@@H](OC)[C@@H](C[C@@H](CN=[N+]=[N-])OCc4ccccc4)O[C@H]3C[C@H]3O[C@@H](CC[C@@H]1O2)C[C@@H](C)C3=C | 7.08 nM | 10.6 nM | 4.83 nM | 36.7 nM | Non-toxic | 7.6 |
| C=C1C[C@@H]2CC[C@@]34C[C@H]5O[C@H]6[C@@H](O3)[C@H]3O[C@H](CC[C@@H]3O[C@H]6[C@H]5O4)CC(=O)C[C@@H]3[C@@H](OC)[C@@H](CC)O[C@H]3C[C@H]3O[C@@H](CC[C@@H]1O2)C[C@@H](C)C3=C | – | – | 1.06 nM | 1.36 nM | Non-toxic | 1.81 |
| C=C1C[C@@H]2CC[C@@]34C[C@H]5O[C@H]6[C@@H](O3)[C@H]3O[C@H](CC[C@@H]3O[C@H]6[C@H]5O4)CC(=O)C[C@@H]3[C@@H](OC)[C@@H](C[C@H](O)CO)O[C@H]3C[C@H]3O[C@@H](CC[C@@H]1O2)C[C@@H](C)C3=C | 0.22 nM | 0.54 nM | 0.03 nM | 6.5 nM | Non-toxic | 216.5 |
| C=C1C[C@@H]2CC[C@@]34C[C@H]5O[C@H]6[C@@H](O3)[C@H]3O[C@H](CC[C@@H]3O[C@H]6[C@H]5O4)CC(=O)C[C@@H]3[C@@H](OC)[C@@H](C[C@H](O)COC(C)=O)O[C@H]3C[C@H]3O[C@@H](CC[C@@H]1O2)C[C@@H](C)C3=C | – | – | 0.11 nM | 3.47 nM | Non-toxic | 33 |
| CC(=O)O[C@H]1C(=O)[C@@]2(C)[C@H]([C@H](OC(=O)c3ccccc3)[C@]3(O)C[C@H](OC(=O)[C@H](O)[C@@H](NC(=O)c4ccccc4)c4ccccc4)C(C)=C1C3(C)C)[C@]1(OC(C)=O)CO[C@@H]1C[C@@H]2O [PACLITAXEL] | – | – | 2.96 nM | > 1000 nM | Non-toxic | >338 |
| COc1cccc2c1C(=O)c1c(O)c3c(c(O)c1C2=O)C[C@@](O)(C(=O)CO)C[C@@H]3O[C@H]1C[C@H](N)[C@H](O)[C@H](C)O1 [DOXORUBICIN] | 154 nM | – | 26.4 nM | 2700 nM | Non-toxic | 134 |

Further lines, with some results ahead:

| IC50 (HCT-15) | IC50 (DLD-1) | SMILES | IC50 [1] | IC50 [2] | Activity [3] | Ratio IC50 [4] |
| --- | --- | --- | --- | --- | --- | --- |
| 1.24 nM | 0.88 nM | C=C1C[C@@H]2CC[C@@]34C[C@H]5O[C@H]6[C@@H](O3)[C@H]3O[C@H](CC[C@@H]3O[C@H]6[C@H]5O4)CC(=O)C[C@@H]3[C@@H](OC)[C@@H](C[C@H]4COCCO4)O[C@H]3C[C@H]3O[C@@H](CC[C@@H]1O2)C[C@@H](C)C3=C | 1 nM | 23 nM | Non-toxic | 22.96 |
| 0.48 nM | 0.78 nM | C=C1C[C@@H]2CC[C@@]34C[C@H]5O[C@H]6[C@@H](O3)[C@H]3O[C@H](CC[C@@H]3O[C@H]6[C@H]5O4)CC(=O)C[C@@H]3[C@@H](OC)[C@@H](C[C@@H](CN=[N+]=[N-])OC)O[C@H]3C[C@H]3O[C@@H](CC[C@@H]1O2)C[C@@H](C)C3=C | 0.44 nM | 1.86 nM | Non-toxic | 4.19 |
| 0.4 nM | 0.45 nM | C=C1C[C@@H]2CC[C@@]34C[C@H]5O[C@H]6[C@@H](O3)[C@H]3O[C@H](CC[C@@H]3O[C@H]6[C@H]5O4)CC(=O)C[C@@H]3[C@@H](OC)[C@@H](CC(=O)OCC)O[C@H]3C[C@H]3O[C@@H](CC[C@@H]1O2)C[C@@H](C)C3=C | 0.37 nM | 1.17 nM | Non-toxic | 3.21 |
| 0.67 nM | 0.75 nM | C=C1C[C@@H]2CC[C@@]34C[C@H]5O[C@H]6[C@@H](O3)[C@H]3O[C@H](CC[C@@H]3O[C@H]6[C@H]5O4)CC(=O)C[C@@H]3[C@@H](OC)[C@@H](C[C@@H](CO)OC)O[C@H]3C[C@H]3O[C@@H](CC[C@@H]1O2)C[C@@H](C)C3=C | 0.3 nM | 11.3 nM | Non-toxic | 37.73 |
| 0.32 nM | 0.44 nM | C=C1C[C@@H]2CC[C@@]34C[C@H]5O[C@H]6[C@@H](O3)[C@H]3O[C@H](CC[C@@H]3O[C@H]6[C@H]5O4)CC(=O)C[C@@H]3[C@@H](OC)[C@@H](C[C@@H](COC(C)=O)OC(C)=O)O[C@H]3C[C@H]3O[C@@H](CC[C@@H]1O2)C[C@@H](C)C3=C | 0.32 nM | 2.77 nM | Non-toxic | 8.78 |
| 0.55 nM | 0.8 nM | C=C1C[C@@H]2CC[C@@]34C[C@H]5O[C@H]6[C@@H](O3)[C@H]3O[C@H](CC[C@@H]3O[C@H]6[C@H]5O4)CC(=O)C[C@@H]3[C@@H](OC)[C@@H](C[C@@H](COCC)OCC)O[C@H]3C[C@H]3O[C@@H](CC[C@@H]1O2)C[C@@H](C)C3=C | 0.54 nM | 2.38 nM | Non-toxic | 4.4 |
| 0.44 nM | 0.83 nM | C=C1C[C@@H]2CC[C@@]34C[C@H]5O[C@H]6[C@@H](O3)[C@H]3O[C@H](CC[C@@H]3O[C@H]6[C@H]5O4)CC(=O)C[C@@H]3[C@@H](OC)[C@@H](CC(=O)OC)O[C@H]3C[C@H]3O[C@@H](CC[C@@H]1O2)C[C@@H](C)C3=C | 0.35 nM | 1.48 nM | Non-toxic | 4.23 |
